For assay [1], the system named is RAW-264.7 cells. Kind of assay: Confocal imaging and colocalization in live RAW-264.7 cells. The assay is classed as cell-based, murine. As for the experimental part: FIGS. 10A-10E: confocal imaging of lipid environments targeted by ONOO^− in live RAW246.7 cells. Cells were seeded into glass microscope dishes, incubated with LNPs (50 μM) and stained with organelle trackers and/or actin dye prior to imaging. LNPs obtained from a 47.5:47.5:5.0 molar ratio of DOTMA, DOPE, and DPPC-TC-ONOO^−. FIG. 10A: cells treated with LNPs, stimulated with LPS. Time coarse images acquired after addition of LPS. FIG. 10B: cells treated with LNPs and 1400 W. FIG. 10C: cells treated with LNPs, then with 1400 W and LPS. FIGS. 10D-10E: quantitative colocalization study of cells treated with LNPs and stimulated with LPS. Pearson's correlation coefficient (PCC) was calculated for quantitative assessment of colocalization using organelle trackers as described above. Scale bars=20 μm (FIGS. 10A-10D) or 5 μm (FIG. 10E). With the utility of DPPC-TC-ONOO^− proven in synthetic protocell membranes, incorporation into live HeLa and RAW 264.7 cells was sought, which are relevant to redox-induced stress and have well-recognized pathways for RNS and ROS production. Lipid nanoparticles (LNPs) (˜100 nm in diameter) was used to deliver DPPC-TC-ONOO− into cells. This method circumvented the limited solubility of DPPC-TC-ONOO− due to the relatively hydrophobic butanone-coumarin motif. LNPs were obtained via sonication from 1,2-di-O-octadecenyl-3-trimethylammonium propane (DOTMA), 1,2-dioleoyl-sn-glycero-3-phosphoethanolamine (DOPE), and DPPC-TC-ONOO− (47.5:47.5:5.0 molar ratio), which were hydrated with a 300 mM sucrose solution. DOTMA and DOPE were chosen as the carrier lipids due to their cationic/zwitterionic natures, which has been postulated to enhance uptake through the cell membrane. The impact of different LNP compositions and incubation times on the cellular incorporation of DPPC-TC-ONOO^− was assessed. […] Specifically, LNPs containing greater than 10 mol % DPPC-TC-ONOO− were considerably more heterogenous in size (up to […] observed, in contrast to ˜100 nm) and nonuniform in vesicle lamellarity. Those with less than 4 mol % DPPC-TC-ONOO− led to insufficient fluorescence signal. To balance these counteracting factors, 5 mol % DPPC-TC-ONOO− was used, with 47.5 mol % DOTMA and DOPE, each. In these initial assays, cells were incubated with LNPs for up to 15 hours to complete the uptake and intracellular localization of DPPC-TC-ONOO−. Shorter incubation times (3-to-5 hours) led to its uptake but not subcellular localization. […] However, high serum concentration in DMEM caused interference between LNPs and serum-protein, resulting in aggregate formation as observed by microscopy. To overcome this obstacle, LNPs (50 μM) were used in a mixture of 2/3 volumetric ratio of sucrose solution and Opti-MEM™, a reduced serum medium known to increase the efficiency of lipofection. The investigations were expanded to include murine-derived macrophage model, RAW-264.7 (FIGS. 10A-10E). RNS play important roles in macrophage activation and differentiation as part of the inflammatory response. Treatment of RAW-264.7 cells with LPS leads to the expression of iNOS, which produces NO·, which then reacts with O2·^−, generating ONOO−. RAW-264.7 cells were treated with LNPs containing either DPPC-TC (positive control) or DPPC-TC-ONOO^− (FIGS. 10A-10E). […] Assessment of DPPC-TC-ONOO^− localization in RAW-264.7 cells was carried out using the ER, Golgi, mitochondrion, and lysosome trackers (FIGS. 10D-10E).

The subject of assay [2] is CD11b^+ macrophage population from BAL cells. The experiment in a line: Murine model of ITB-induced ALI: DPPC-TC fluorescence in BAL cells by flow cytometry. Format: in vivo, mice. The settings on record: 0.5 mM LNPs (5 mol % probe) on day 3, BAL 3 hour-post instillation, n = 3. From the text: FIGS. 11A-11B: flow cytometry analysis of myeloid-derived BAL cells for migratory phenotype and DPPC-TC-ONOO^− probe activity in murine model of ALI. FIG. 11A: conceptual illustration of ITB-induced ALI and LNP instillation. FIG. 11B: classification of myeloid-derived BAL cells by migratory phenotype (CD11b+) and DPPC-TC fluorescence. Quadrant plots are shown for individual mice, which were used to quantify DPPC-TC as a measure of peroxynitrite generation. After successfully imaging the iNOS dependent peroxynitrite activity in both HeLa and RAW264.7, the potential of DPPC-TC-ONOO^− for detecting peroxynitrite generated in lung tissue injury using a pre-established murine model of ALI was explored (FIGS. 11A-11B). During ALI, release of cytokines and chemokines, such as tumor necrosis factor-alpha (TNF-α) and interleukin-1 beta ([…]), recruit macrophages and other immune cells to the site of injury. During the initial phase of injury (d0-d3), pro-inflammatory macrophages are dominant, which is associated with higher levels of iNOS expression. Herein, a previously reported ITB method was employed, which causes a severe inflammatory response characterized by infiltration of immune cells, which is dependent upon iNOS activation. For a generalizable and biocompatible instillation protocol, LNP concentrations ranging from 0.5 to 2.0 mM were evaluated. LNPs carrying DPPC-TC (5 mol % of the lipid content) were employed in C57BL6/J mice and the viability of the cells from BAL was analyzed via flow cytometry. Results indicated 94% viability at 0.5 mM LNP concentration, which was employed for the subsequent experiments. On d0, mice (C57BL6/J or iNOS^−/−) were anesthetized and received an intratracheal instillation of either PBS (control) or bleomycin (FIGS. 11A-11B). To detect the peroxynitrite generation during the early inflammatory response, mice were again anesthetized and instilled with 0.5 mM LNPs containing DPPC-TC-ONOO^− (5 mol % of the lipid content) on day 3. […] The migratory population was further analyzed for DPPC-TC signal quantification (Table 4).
In general terms: A flow cytometer gives signals particle by particle.

`CCCCCCCCCCCCCCCC(=O)OCC(COP(=O)([O-])OCC[N+](C)(C)Cc1cn(-c2cc3ccc(OC(=O)Oc4ccc(CCC(=O)C(F)(F)F)cc4)cc3oc2=O)nn1)OC(=O)CCCCCCCCCCCCCCC` (racemic) [DPPC-TC-ONOO^−]: the “signal in the DPPC-TC channel” value in assay [1] (RAW-264.7, 1400 W only or 1400 W and LPS) was “little-to-no signal”. The PCC in assay [1] (RAW-264.7, ER tracker) is reported as 0.946; in assay [1] (RAW-264.7, Golgi tracker) it was 0.729. Besides, the fluorescence intensity result in assay [1] (RAW-264.7, LNPs, stimulation with LPS over 16 hours) was “substantial increase in fluorescence intensity”. Moreover, the “signal at 405/475 nm” value in assay [1] (RAW-264.7, LNPs, unstimulated) is recorded as “negligible levels of signal”. The “DPPC-TC p:n ratio” value in assay [2] (WT-ITB) was 0.72 ± 0.008; in assay [2] (WT-PBS), 0.55 ± 0.021; in assay [2] (iNOS^−/−-ITB) it was 0.56 ± 0.018.
